Tests used:
weeds [1] = assay: Pre-emergence Test; format: in vivo; settings: soil sprayed about 24 hours after sowing, rated after three weeks vs untreated control
Procedure: Pre-emergence Test Solvent: 5 parts by weight of acetone Emulsifier 1 part by weight of alkylaryl polyglycol ether To produce a suitable preparation of active compound, 1 part by weight of active compound is mixed with the stated amount of solvent, the stated amount of emulsifier is added and the concentrate is diluted with water to the desired concentration. Seeds of the test plants are sown in normal soil. After about 24 hours, the soil is sprayed with the preparation of active compound such that the particular amount of active compound desired is applied per unit area. The concentration of the spray liquor is chosen so that the particular amount of active compound desired is applied in 1000 litres of water per hectare. After three weeks, the degree of damage to the plants is rated in % damage in comparison to the development of the untreated control. The figures denote: 0%=no effect (like untreated control) 100%=total destruction

weeds [2] = assay: Post-emergence Test; format: in vivo; settings: test plants of height 5-15 cm sprayed, rated after three weeks vs untreated control
Procedure: Post-emergence Test Solvent: 5 parts by weight of acetone Emulsifier: 1 part by weight of alkylaryl polyglycol ether To produce a suitable preparation of active compound, 1 part by weight of active compound is mixed with the stated amount of solvent, the stated amount of emulsifier is added and the concentrate is diluted with water to the desired concentration. Test plants which have a height of 5-15 cm are sprayed with the preparation of active compound such that the particular amounts of active compound desired are applied per unit area. The concentration of the spray liquor is chosen so that the particular amounts of active compound desired are applied in 1000 l of water/ha. After three weeks, the degree of damage to the plants is rated in % damage in comparison to the development of the untreated control. The figures denote: 0%=no effect (like untreated control) 100%=total destruction

Which “activity against weeds (degree of damage to the plants)” value (weeds [1]) does the source give for `Cn1c(C(F)(F)F)cc(=O)n(-c2cc(C3OCCO3)c(C#N)cc2F)c1=O` [Preparation Example 1, 1-[4-cyano-2-fluoro-5-(1,3-dioxolan-2-yl)-phenyl]-3,6-dihydro-2,6-dioxo-3-methyl-4-trifluoromethyl-1(2H)-pyrimidine] here?
Its value is “very strong activity against weeds”.

What about the “activity against weeds (degree of damage to the plants)” value (weeds [2]) of the same compound?
Its value is “very strong activity against weeds”.
